Experimental data published in patent US20120172453A1, “METHODS FOR TREATING NEURODEGENERATIVE DISEASES” (Coyote Pharmaceuticals, Inc., priority 2010, published 2012).

Legend:
[1] = test system: Rat primary motor neurons; test: axon extension of rat primary motor neurons; type: cell-based; details: Neuron, cells extending axons counted after 72 hrs, values in parenthesis, read-out: reasonable range expected for the EC50
Method: Rat primary motor neurons were isolated from embryonic spinal cords in accordance with the method of Henderson et al.; J Cohen and G P Wilkin (ed.), Neural Cell Culture, (1995) p69-81 which is herein incorporated by reference in its entirety. Briefly, spinal cords were dissected from day 15 embryo (E15) and incubated in a trypsin solution, and followed by DNase treatment to release spinal cord cells from tissue fragments. The cell suspension was centrifuged to remove tissue fragments. Then motor neurons were enriched by density gradient centrifugation.
Motor neurons were cultured in serum-free neurobasal medium containing insulin, forskolin, 3-isobutyl-1-methylxanthine, neurotrophic factors, Bovine serum albumin, selenium, transferrin, putrescine, progesterone and B27 supplement in tissue culture plate coated with poly-ornithine and laminin.
Rat primary motor neurons were prepared and cultured as described Example 11. […] The cells extending axons were counted in five different fields for each treatment after 72 hrs. Percentage of positive cells relative to total cells in the same magnification field was calculated and the results were expressed as means+/− standard deviations, n=5.

[2] = test system: Mouse Neuro2A neuroblastoma cells; test: Neuro2A cells with neurites counted after retinoic acid differentiation and GGTI-298; type: cell-based
Method: Mouse Neuro2A neuroblastoma cells were cultured in DMEM supplemented with 10% FBS for 24 hrs. […] Then differentiation was induced by retinoic acid in DMEM supplemented with 2% FBS. An inhibitor against a G-protein, GGTI-298, was incubated. After 24 hrs incubation, cells with neurites were counted.

Structure (SMILES)	EC50 [1] [nM]	effect of a large quantity on viability of neuroblastoma cells [2]
CC(=O)CC/C=C(\C)CC/C=C(\C)CC/C=C(\C)CCC=C(C)C [CNS-102, 5E,9E,13E-Geranylgeranyl acetone]	0.5 to 2	–
CC(=O)CC/C=C(/C)CC/C=C(\C)CC/C=C(\C)CCC=C(C)C [CNS-103, 5Z,9E,13E-Geranylgeranyl acetone]	8 to 12	inhibited viability of neuroblastoma cells
